Experimental data taken from patent US20180030091A1, “COLLAGEN-BINDING SYNTHETIC PEPTIDOGLYCANS FOR USE IN VASCULAR INTERVENTION” (Purdue Research Foundation, priority 2010, published 2018).
Where no end group is shown, it is not given here. The star is where a group is joined. Dansyl = CN(C)c1cccc2c(S(=O)(=O)*)cccc12

Legend:
[1] = target: T1, collagen (Bos taurus, UniProt P02453+P02465); test: Collagen fibrillogenesis by turbidity at 313 nm; type: biochemical; details: 4 mg/mL collagen, 10:1 collagen:treatment unless otherwise indicated
T1 construct: purchased Inamed, Freemont, Calif; (Nutragen)
Description: Collagen fibrillogenesis was monitored by measuring turbidity related absorbance at 313 nm providing information on rate of fibrillogenesis and fibril diameter. Gel solutions were prepared as described in EXAMPLE 15 (4 mg/mL collagen, 10:1 collagen:treatment, unless otherwise indicated) and 50 uL/well were added at 4° C. to a 384-well plate. The plate was kept at 4° C. for 4 hours before initiating fibril formation. A SpectraMax M5 at 37° C. was used to measure absorbance at 313 nm at 30 s intervals for 6 hours.
A fibrillogenesis assay as described for DS-SILY, EXAMPLE 17, performed with the conjugate DS-Dc13.

[2] = system: HCA SMCs; test: Elastin measurement by Fastin assay; type: cell-based, Human; details: gels cultured for 10 days
Description: Collagen gels seeded with HCA SMCs were prepared as described in EXAMPLE 25. Differentiation medium was changed every three days and gels were cultured for 10 days. Collagen gels containing no cells were used as a control. Gels were rinsed in 1×PBS overnight to remove serum protein, and gels were tested for elastin content using the Fastin elastin assay per manufacturers protocol (Biocolor, County […].). Briefly, gels were solubilized in 0.25 M oxalic acid by incubating at 100° C. for 1 hr. Elastin was precipitated and samples were then centrifuged at 11,000×g for 10 min. The solubilized collagen supernatant was removed and the elastin pellet was stained by Fastin Dye Reagent for 90 min at room temperature. Samples were centrifuged at 11,000×g for 10 min and unbound dye in the supernatant was removed. Dye from the elastin pellets was released by the Fastin Dye Dissociation Reagent, and 100 μL samples were transferred to a 96-well plate (Costar). Absorbance was measured at 513 nm, and elastin content was calculated from an α-elastin standard curve.

[3] = target: T1, collagen; test: Cryo-SEM measurement of fibril density; details: 10:1 molar ratio, cryo-SEM 10,000×
Description: Collagen gels were formed in the presence of each additive at a 10:1 molar ratio, as described in EXAMPLE 15, directly on the SEM stage, processed, and imaged as described. Images at 10,000× were analyzed for fibril density calculations. Images were converted to 8-bit black and white, and threshold values for each image were determined using ImageJ software (NIH). The threshold was defined as the value where all visible fibrils are white, and all void space is black. The ratio of white to black area was calculated using MatLab software. All measurements were taken in triplicate and thresholds were determined by an observer blinded to the treatment.

[4] = system: Human platelets on Type I fibrillar collagen; test: Inhibition of platelet activation on fibrillar collagen after 24 hour rinse (PF4, NAP2); type: cell-based; details: 50 μM, incubated 15 min, rinsed for 24 hours
Description: Type I fibrillar collagen from Chronolog was diluted in isotonic glucose to a concentration of 50 μg/mL. 50 μL of collagen solution was added to each well of a high bind 96-well plate. The plate was incubated overnight at 4° C., and then rinsed 3× with 1×PBS. For microplate assays, peptidoglycan was diluted in 1×PBS at concentrations between 0.0001 μM to 100 μM and 50 μL solution was added to the collagen coated wells. DS, peptide, or 1×PBS were also added to collagen coated wells as controls. Treatments were incubated at 37° C. with shaking at 200 rpm for 15 min. Wells were then rinsed of unbound treatment by removing the treatment solution, adding PBS, and shaking the wells for 24 hours. During the 24 hours, PBS solution was changed 3 times.
Human whole blood was collected from healthy volunteers by venipuncture. The first 5 mL of blood was discarded and approximately 20 mL was then collected into citrated glass vacutainers (BD Bioscience). Blood was centrifuged in the glass tube for 20 min at 200 g at 25° C. The top layer of the centrifuged blood, the platelet rich plasma (PRP), was used for platelet experiments.
PRP (50 μL/well) was added to the microplate for 1 hour at room temperature without shaking. After 1 hour of incubation, 45 μL of PRP was removed from each well and added to a microcentrifuge tube containing […] ETP (107 mM EDTA, 12 mM theophylline, and 2.8 mM prostaglandin E1) to inhibit further platelet activation. These tubes were spun at 4° C. for 30 min at 2000 g to pellet the platelets. The supernatant (platelet serum) was collected for ELISA studies to test for the presence of platelet activation markers PF-4 and NAP2. Sandwich ELISAs were utilized in order to detect each protein. The components for both sandwich ELISAs were purchased from R&D Systems and the provided protocols were followed. Platelet serum was diluted 10,000 times in 1% BSA in 1×PBS for values to fall within a linear range.
Platelet activation was measured through release of platelet factor 4 (PF4) and β-thromboglobulin (NAP2). […] Since the high SILY/DS ratio is expected to provide higher binding affinity to the collagen surface due to multiple interactions, peptidoglycans with the higher SILY/DS ratios were prepared.
The number of peptides per DS molecule was further increased to 18 to create the peptidoglycan DS-SILY18, and the concentration of molecule needed to inhibit platelet activation was tested. […] Within solubility limits, the number of peptides can be increased to achieve maximal platelet inhibition as well as to reduce diffusion over time, where a higher level of peptidoglycans on the denuded vessel wall is sustained.

[5] = system: Human platelet-rich plasma on fibrillar collagen; test: Platelet binding to collagen under flow; type: cell-based; details: 50 μM for 15 min; 2 mL/hr for 1 hour, shear rate 355 s^−1
Description: To mimic physiologic conditions with flowing blood, platelet binding to collagen surfaces under flow conditions was evaluated. Flow kits were obtained from Ibidi (Munchen, Germany). Each channel was coated with fibrillar collagen (Chronolog). Excess collagen was removed from the flow channel by pushing 1×PBS through the channel with a syringe. DS-SILY18 was incubated in the channel at a concentration of 50 μM for 15 min at 37° C., and unbound peptidoglycan was rinsed by pushing 1×PBS through the channel with a syringe. The control channel consisted of collagen not treated with peptidoglycan.
Platelet rich plasma was pushed through the channels at 2 mL/hr for 1 hour, corresponding to a shear stress of 3.55 dynes/cm^2 and a shear rate of 355 s^−1. Unbound platelets were rinsed from the channel by pushing through 1×PBS. Adhered platelets were fixed in the channel with 10% formaldehyde. Platelets were permeabilized and actin filaments were stained with phalloidin-Alexa Fluor 488 (Invitrogen).

[6] = target: T2, Monomeric collagen (Bos taurus, UniProt P02453+P02465); test: Fluorescence binding of dansyl-labeled DS-peptide conjugates to immobilized collagen; details: 100 μM to 10 nM; 30 min at 37° C.
T2 construct: purchased Advanced Biomatrix 5010
Description: In order to determine whether the peptide conjugate maintained its ability to bind to collagen after its conjugation to DS, a fluorescent binding assay was performed. A fluorescently labeled version of SILY, Z-SILY, was synthesized by adding dansylglycine to the amine terminus. This peptide was conjugated to DS and purified using the same methods described for SILY.
Binding assays were done in a 96-well high binding plate, black with a clear bottom (Costar). Collagen was compared to untreated wells and BSA coated wells. Monomeric collagen (Advanced Biomatrix Cat. No. 5010) and BSA were immobilized at 37° C. for 1 hr by incubating 90 μL/well at concentrations of 2 mg/mL in 10 mM HCl and 1×PBS respectively. Each well was washed 3× with 1×PBS after incubating.
Wells were preincubated with DS at 37° C. for 30 min to eliminate nonspecific binding of DS to collagen. Wells were rinsed 3× with 1×PBS before incubating with DS-Z-SILY. […] Fluorescence readings were taken on an M5 Spectramax Spectrophotometer (Molecular Devices) at excitation/emission wavelengths of 335 nm/490 nm, respectively.
Fluorescence binding of DS-Z-SILY on immobilized collagen, BSA, and untreated wells are compared in FIG. 7. […]
The fluorescence binding assays described for DS-ZSILY was performed with peptide sequence ZSYIRIADTNITGC (ZDc13) (SEQ ID NO: 30).

[7] = system: Human coronary artery smooth muscle cells (HCA SMC); test: Gel compaction by smooth muscle cells in collagen gels; type: cell-based; details: Day 7
Description: Human coronary artery smooth muscle cells (HCA SMC) (Cascade Biologics) were cultured in growth medium (Medium 231 supplemented with smooth muscle growth factor). Cells from passage 3 were used for all experiments. Differentiation medium (Medium 231 supplemented with 1% FBS and 1×pen/strep) was used for all experiments unless otherwise noted.
Collagen gels were prepared with each additive as described with the exception that the 1×PBS sample addition was omitted to accommodate the addition of cells in media. After incubating on ice for 30 min, HCA SMCs in differentiation medium were added to the gel solutions to a final concentration of 1×10^6 cells/mL. Gels were formed in quadruplicate in 48-well non-tissue culture treated plates (Costar) for 6 hrs before adding 500 μL/well differentiation medium. Gels were freed from the well edges after 24 hrs. Medium was changed every 2-3 days and images for compaction were taken at the same time points using a Gel Doc System (Bio-Rad). The cross-sectional area of circular gels correlating to degree of compaction was determined using ImageJ software (NIH). Gels containing no cells were used as a negative control and cells in collagen gels absent additive were used as a positive control. By day 10 all gels had compacted to approximately 10% of the original gel area, and differences between additives were small.

[8] = target: T1, collagen; test: Viscoelastic characterization of collagen gels containing Dc13 or DS-Dc13; details: varying ratios of collagen to additive
Description: Collagen gels were prepared, as in EXAMPLE 15. Viscoelastic characterization was performed as described in EXAMPLE 16 on gels formed with varying ratios of collagen to additive (treatment).

T1 sequence (P02453 162-1217 limits assumed): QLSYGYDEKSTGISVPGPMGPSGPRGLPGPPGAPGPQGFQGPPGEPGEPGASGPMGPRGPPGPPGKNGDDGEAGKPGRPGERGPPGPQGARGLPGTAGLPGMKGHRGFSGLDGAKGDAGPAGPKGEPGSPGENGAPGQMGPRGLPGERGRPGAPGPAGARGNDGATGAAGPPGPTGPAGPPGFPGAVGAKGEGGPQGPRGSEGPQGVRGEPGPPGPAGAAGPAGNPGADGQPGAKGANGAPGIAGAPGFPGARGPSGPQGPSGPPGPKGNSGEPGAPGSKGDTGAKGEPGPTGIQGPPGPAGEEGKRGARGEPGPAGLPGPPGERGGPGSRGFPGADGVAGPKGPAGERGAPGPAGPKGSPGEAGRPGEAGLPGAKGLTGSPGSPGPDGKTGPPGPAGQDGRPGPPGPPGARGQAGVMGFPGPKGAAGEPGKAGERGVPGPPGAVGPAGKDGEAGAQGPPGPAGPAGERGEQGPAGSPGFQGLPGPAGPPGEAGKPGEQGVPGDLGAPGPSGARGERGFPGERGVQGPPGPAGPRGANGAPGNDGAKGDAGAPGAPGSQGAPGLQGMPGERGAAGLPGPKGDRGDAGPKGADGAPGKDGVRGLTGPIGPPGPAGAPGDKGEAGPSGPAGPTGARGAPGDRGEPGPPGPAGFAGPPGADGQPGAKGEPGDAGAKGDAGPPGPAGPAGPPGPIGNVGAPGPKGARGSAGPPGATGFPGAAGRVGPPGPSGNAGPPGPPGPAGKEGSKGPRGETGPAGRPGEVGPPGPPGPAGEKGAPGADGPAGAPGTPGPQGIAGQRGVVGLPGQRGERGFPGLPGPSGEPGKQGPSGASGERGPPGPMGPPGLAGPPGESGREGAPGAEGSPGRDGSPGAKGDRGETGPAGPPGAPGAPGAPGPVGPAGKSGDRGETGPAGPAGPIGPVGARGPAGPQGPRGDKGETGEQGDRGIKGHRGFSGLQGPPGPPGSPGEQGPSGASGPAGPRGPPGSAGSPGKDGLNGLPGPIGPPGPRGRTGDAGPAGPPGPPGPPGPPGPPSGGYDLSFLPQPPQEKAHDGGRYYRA
T1 sequence (P02465 80-1117 limits assumed): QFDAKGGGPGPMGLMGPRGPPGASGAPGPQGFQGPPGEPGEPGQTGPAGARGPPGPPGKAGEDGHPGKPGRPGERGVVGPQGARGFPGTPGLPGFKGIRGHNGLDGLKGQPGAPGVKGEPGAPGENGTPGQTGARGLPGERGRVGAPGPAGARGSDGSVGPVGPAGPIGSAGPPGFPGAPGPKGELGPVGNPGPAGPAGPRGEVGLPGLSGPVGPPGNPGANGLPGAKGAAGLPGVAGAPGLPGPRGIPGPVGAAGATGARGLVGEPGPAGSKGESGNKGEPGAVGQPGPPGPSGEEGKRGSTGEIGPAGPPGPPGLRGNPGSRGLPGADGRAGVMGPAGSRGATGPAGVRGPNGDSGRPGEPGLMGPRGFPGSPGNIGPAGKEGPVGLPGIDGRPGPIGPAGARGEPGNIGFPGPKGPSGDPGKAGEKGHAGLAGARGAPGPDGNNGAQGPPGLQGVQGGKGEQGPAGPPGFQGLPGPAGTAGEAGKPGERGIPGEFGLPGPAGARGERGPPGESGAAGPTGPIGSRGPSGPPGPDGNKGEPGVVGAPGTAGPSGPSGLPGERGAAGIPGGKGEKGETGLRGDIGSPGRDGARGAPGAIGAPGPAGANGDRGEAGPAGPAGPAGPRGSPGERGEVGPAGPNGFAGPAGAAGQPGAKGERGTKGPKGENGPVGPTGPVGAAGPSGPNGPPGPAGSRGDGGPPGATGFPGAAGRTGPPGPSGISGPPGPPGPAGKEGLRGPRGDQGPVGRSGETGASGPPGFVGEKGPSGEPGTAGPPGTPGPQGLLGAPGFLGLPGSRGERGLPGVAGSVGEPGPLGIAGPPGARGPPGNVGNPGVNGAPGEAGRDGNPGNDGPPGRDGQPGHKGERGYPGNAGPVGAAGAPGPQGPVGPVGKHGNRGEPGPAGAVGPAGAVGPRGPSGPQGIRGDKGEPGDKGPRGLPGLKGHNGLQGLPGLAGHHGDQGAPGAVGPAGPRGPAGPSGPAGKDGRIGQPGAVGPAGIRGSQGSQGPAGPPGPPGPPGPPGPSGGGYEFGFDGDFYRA
T2 sequence (P02453 162-1217 limits assumed): as the sequence (P02453 162-1217 limits assumed) above
T2 sequence (P02465 80-1117 limits assumed): as the sequence (P02465 80-1117 limits assumed) above

“DS-SILY: dermatan sulfate-RRANAALKAGELYKSILYGC conjugate; SILY/DS ratio 1.06 in Example 2, varied ratios in Example 36 (RRANAALKAGELYKSILYGC-NH2; not fully specified (residue 20); also: dermatan sulfate conjugate, SILY/DS ratio 1.06 or varied)” was tested, and the “fibrillogenesis (absorbance at 313 nm)” value [1] was “decreases the rate of fibrillogenesis”, the elastin production [2] was “significantly increased elastin production over all samples” and the “fibril density (ratio of fibril containing area to void space)” value [3] was “significantly greater fibril density”. The “inhibition of platelet activation (release of PF4 and NAP2)” value [4] was “able to inhibit collagen mediated platelet activation” and the “platelets bound to collagen under flow” value [5] was “significantly fewer bound platelets on the peptidoglycan treated surface”.
With “DS-Z-SILY: dermatan sulfate conjugated to Z-SILY (Dansyl-GRRANAALKAGELYKSILYGC-NH2; also: dermatan sulfate conjugate)” the “fluorescence binding to collagen versus BSA and untreated wells” value [6] was “binds specifically to the collagen-treated wells over BSA and untreated wells”.
dermatan sulfate [DS] was tested, and the “gel compaction, day 7” value [7] was “significant compared to collagen”, the elastin production [2] was “significantly decreased elastin production over untreated collagen” and the “stiffness (storage modulus G′) of collagen gel” value [8] was “increase the stiffness of the resulting collagen gel over untreated collagen”. For the same substance, the “inhibition of platelet activation (release of PF4 and NAP2)” value [4] was “little to no effect on inhibiting platelet activation”.
